{"source": "patent US20250277191A1", "about": "“METHODS AND COMPOSITIONS FOR CRYOPRESERVING SUBPOPULATIONS OF LYMPHOCYTES” (Ossium Health, Inc., priority 2022, published 2025)", "key": {"[1]": {"system": "Hematopoietic cells and bone marrow", "assay": "CFU assay of bone marrow after thawing cells cryopreserved in DMSO", "assay_type": "cell-based, human", "conditions": "for BFU-E / CFU-E / CFU-GEMM / CFU-GM / total CFU: after thawing, average score from duplicate wells", "experimental": "Bone marrow prior to DMSO addition (designated “QC1”) was washed and resuspended at a concentration of 8×10^6 cells/ml in Rinse Media. Cells were aliquoted and mixed with equal volumes of DMSO solutions to yield final concentrations of either 2.5, 5 or 10% DMSO in Rinse Media. A 2.5 ml volume of each preparation was aliquoted in triplicate to 5 ml cryovials. After equilibrating for 5 minutes, the cryovials were placed in a CryoMed Controlled Rate Freezer and frozen using the following program: • Step 1. −1° C./minute to −86° C. • Step 2. −20° C./minute to −150° C. • Step 3. Hold at −150° C. The vials were transferred to LN2 after 5 minutes at −150° C. The following day, cryovials containing cryopreserved cells were thawed in a 37° C. water bath and transferred to a biological safety cabinet after sanitizing with 70% alcohol. The cells were transferred to a centrifuge tube and pelleted. After removing the supernatant, the cells were resuspended in 12.5 ml of Selection Media. The tubes were centrifuged again and the cell pellet was resuspended in final volume of 25 ml of Selection Media. Total cell counts were obtained using a Sysmex Hematology Analyzer. CFU assays were also performed. Fresh and as well as previously cryopreserved hematopoietic cells and bone marrow preparations were analyzed by CFU assay. Given the limited sample size, statistical analysis could not be performed."}, "[2]": {"system": "Hematopoietic cells and bone marrow", "assay": "Flow cytometry of HSPC and lymphocyte subsets in cryopreserved bone marrow", "assay_type": "cell-based, human", "experimental": "Bone marrow prior to DMSO addition (designated “QC1”) was washed and resuspended at a concentration of 8×10^6 cells/ml in Rinse Media. Cells were aliquoted and mixed with equal volumes of DMSO solutions to yield final concentrations of either 2.5, 5 or 10% DMSO in Rinse Media. A 2.5 ml volume of each preparation was aliquoted in triplicate to 5 ml cryovials. After equilibrating for 5 minutes, the cryovials were placed in a CryoMed Controlled Rate Freezer and frozen using the following program: • Step 1. −1° C./minute to −86° C. • Step 2. −20° C./minute to −150° C. • Step 3. Hold at −150° C. The vials were transferred to LN2 after 5 minutes at −150° C. The following day, cryovials containing cryopreserved cells were thawed in a 37° C. water bath and transferred to a biological safety cabinet after sanitizing with 70% alcohol. The cells were transferred to a centrifuge tube and pelleted. After removing the supernatant, the cells were resuspended in 12.5 ml of Selection Media. The tubes were centrifuged again and the cell pellet was resuspended in final volume of 25 ml of Selection Media. Total cell counts were obtained using a Sysmex Hematology Analyzer. Flow cytometry was performed using non-cryopreserved Hematopoietic cells and bone marrow QC1 sample for comparison. Panel design for flow cytometry with the following panel of conjugated antibodies (see Table 1). Each tube was stained with the viability dye 7-AAD after antibody staining. [table]"}}, "note": "“Also recorded” adds a separate entry of the source."}
{"smiles": "C[S+](C)[O-]", "note": "[DMSO, dimethyl sulfoxide]", "values": [{"measurement": "CFU potential", "setting": "[1]; 10% DMSO compared to 2.5 or 5% DMSO, qualitative", "result": "significantly reduces"}, {"measurement": "BFU-E", "setting": "[1]; cryopreserved in 2.5% DMSO", "result": 11.5}, {"measurement": "CFU-E", "setting": "[1]; cryopreserved in 2.5% DMSO", "result": 7.5}, {"measurement": "CFU-GEMM", "setting": "[1]; cryopreserved in 2.5% DMSO", "result": 0.5}, {"measurement": "CFU-GM", "setting": "[1]; cryopreserved in 2.5% DMSO", "result": 7.5}, {"measurement": "total CFU", "setting": "[1]; cryopreserved in 2.5% DMSO", "result": 27}, {"measurement": "BFU-E", "setting": "[1]; cryopreserved in 5% DMSO", "result": 11.5}, {"measurement": "CFU-E", "setting": "[1]; cryopreserved in 5% DMSO", "result": 6}, {"measurement": "CFU-GEMM", "setting": "[1]; cryopreserved in 5% DMSO", "result": 0.5}, {"measurement": "CFU-GM", "setting": "[1]; cryopreserved in 5% DMSO", "result": 9}, {"measurement": "total CFU", "setting": "[1]; cryopreserved in 5% DMSO", "result": 27}, {"measurement": "BFU-E", "setting": "[1]; cryopreserved in 10% DMSO", "result": 4}, {"measurement": "CFU-E", "setting": "[1]; cryopreserved in 10% DMSO", "result": 3.5}, {"measurement": "CFU-GEMM", "setting": "[1]; cryopreserved in 10% DMSO", "result": 0}, {"measurement": "CFU-GM", "setting": "[1]; cryopreserved in 10% DMSO", "result": 0}, {"measurement": "total CFU", "setting": "[1]; cryopreserved in 10% DMSO", "result": 7.5}, {"measurement": "total CD3+ T cells", "setting": "[2]; 2.5% DMSO compared to either 5 or 10%, FIG. 2B", "result": "reduced"}, {"measurement": "Natural Killer cells (CD3-CD19-CD56+)", "setting": "[2]; 2.5 or 5% DMSO compared with 10%, FIG. 2F", "result": "highest"}, {"measurement": "percentage of viable CD45LOCD34+ HSPC in thawed products", "setting": "[2]; 5% DMSO compared with 2.5 and 10% DMSO, FIG. 2A", "result": "highest; also recorded: enhanced"}, {"measurement": "percentage of CD3+CD4-CD8-gd TCR+ gd T cells", "setting": "[2]; 10% DMSO compared to 2.5 and 5%, FIG. 2C", "result": "lowest"}, {"measurement": "gd T cells, sensitivity to DMSO concentration", "setting": "[2]; across 2.5, 5 and 10% DMSO", "result": "relatively insensitive"}, {"measurement": "percentage of CD4+CDRA+CCR7+ naïve T cells", "setting": "[2]; across 2.5, 5 and 10% DMSO, FIG. 2D", "result": "increased with increasing DMSO concentrations; also recorded: lowest with the lower DMSO concentrations"}, {"measurement": "naïve CD8+ T cells", "setting": "[2]; across 2.5, 5 and 10% DMSO, significant between 2.5 and 10%, FIG. 2E", "result": "trend in decreasing; also recorded: relatively insensitive"}, {"measurement": "percentage of HSPC within the total viable cell population", "setting": "[2]; cryopreserved in 5% DMSO versus fresh, FIG. 1A", "result": "increased with cryopreservation"}, {"measurement": "total population of T cells (CD3+)", "setting": "[2]; cryopreserved in 5% DMSO versus fresh, FIG. 1B", "result": "decreased; also recorded: reduced"}, {"measurement": "percentage of gd T cells", "setting": "[2]; cryopreserved in 5% DMSO versus fresh, FIG. 1C", "result": "significant increase; also recorded: increased with cryopreservation"}, {"measurement": "percentage of CD4+/CD8+CDRA+CCL7+ naïve T cells", "setting": "[2]; cryopreserved in 5% DMSO versus fresh, FIG. 1D and 1E", "result": "significantly decreased; also recorded: reduced"}, {"measurement": "percentage of NK cells", "setting": "[2]; cryopreserved in 5% DMSO versus fresh, FIG. 1F", "result": "decreased following cryopreservation"}]}
